# Values of other authors as cited in US9943479B2, “Injectable liquid paracetamol formulation” (GENFARMA LABORATORIO S.L., priority 2006, dated 2018).
# Like-named read-outs stand apart in the source and are kept apart here.
compound,measurement,setting,value
"CC(=O)Nc1ccc(O)cc1 [paracetamol, n-acetyl-4-aminophenol]",solubility in aqueous medium,4° C.,~8 mg/mL
same,solubility in aqueous medium,20° C.,~12 mg/mL
